Source: patent US20260365682A1, “MODULATORS OF TNF-ALPHA ACTIVITY” (Forward Therapeutics, Inc., priority 2022, published 2026)

Target: T1, TNF-α (Homo sapiens, UniProt P01375)
T1 construct: purchased R&D 210-TA-020/CF
Assay: TNF-α Induced HEK Blue Cellular Assay (secreted alkaline phosphatase expression, QUANTI-Blue)
Format: cell-based
Settings: HEK Blue TNFα reporter cells; TNF-α 100 μg/ml; 24 hrs at 37° C.; inhibition of secreted alkaline phosphatase; read-out: IC50 value
Procedure: TNF-α Induced HEK Blue Cellular Assay
Test articles were diluted in DMSO and serially diluted into 384 well assay plate (Corning 3765), at final concentrations ranging from […] to 0.5 nM. HEK Blue™ TNFα reporter cells were added at a final density of 10,000 cell per well in assay media [DMEM (Gibco, cat #21063-029), 10% fetal bovine serum (ExcelBio, cat #FND500), 1% Penicillin-Streptomycin (Solarbio, cat #P1400-100]. TNF-α (R&D 210-TA-020/CF) was then added to the assay plate at a final concentration of […]. This plate was then incubated for 24 hrs at 37° C. and 5% CO2. Secreted alkaline phosphatase expression was then measured using QUANTI-Blue™ (Invivogen), according to manufacturer instructions and read on an Envision microplate reader at 620 nm.
Inhibition data for test compound over a range of concentration was plotted as percentage inhibition of the test compound (100%=maximum inhibition). IC50 values were determined after correcting for background [(sample read-mean of low control)/(mean of high control-mean of low control)] whereby the low control is DMSO without stimulation and high control is DMSO with stimulation. The IC50 is defined as the concentration of test compound which produces 50% inhibition and was quantified using the 4 parameter logistic equation to fit the data.

T1 sequence (P01375 77-233 limits assumed): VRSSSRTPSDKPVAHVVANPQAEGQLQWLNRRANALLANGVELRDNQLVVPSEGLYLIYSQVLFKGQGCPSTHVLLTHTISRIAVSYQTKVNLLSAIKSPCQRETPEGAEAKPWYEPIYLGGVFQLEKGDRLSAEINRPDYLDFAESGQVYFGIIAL

IC50	Compound
< 100 nM	[2H]C([2H])([2H])N1C(=O)c2cccc(OC(F)F)c2[C@H]2C[C@@H]1c1nc3ccc(C#CCC(O)C(C)O)cc3n12 (single isomer, unassigned) [Example 244, (7R,14R)-1-(difluoromethoxy)-11-((4S or 4S,5R or 5S)-4,5-dihydroxyhex-1-yn-1-yl)-6-(methyl-d3)-6,7-dihydro-7,14-methanobenzo[f]benzo[4,5]imidazo[1,2-a][1,4]diazocin-5(14H)-one]
< 100 nM	[2H]C([2H])([2H])N1C(=O)c2cccc(OC(F)F)c2[C@H]2C[C@@H]1c1nc3ccc(C#CCC(O)C(C)O)cc3n12 (single isomer, unassigned) [Example 245, (7R,14R)-1-(difluoromethoxy)-11-((4S or 4R,5S or 5R)-4,5-dihydroxyhex-1-yn-1-yl)-6-(methyl-d3)-6,7-dihydro-7,14-methanobenzo[f]benzo[4,5]imidazo[1,2-a][1,4]diazocin-5(14H)-one]
< 100 nM	[2H]C([2H])([2H])N1C(=O)c2cccc(OC(F)F)c2[C@H]2C[C@@H]1c1nc3ccc(C#CCC(O)C(C)O)cc3n12 (single isomer, unassigned) [Example 246, (7R,14R)-1-(difluoromethoxy)-11-((4R or 4S,5R or 5S)-4,5-dihydroxyhex-1-yn-1-yl)-6-(methyl-d3)-6,7-dihydro-7,14-methanobenzo[f]benzo[4,5]imidazo[1,2-a][1,4]diazocin-5(14H)-one]
< 100 nM	CC1C(C#Cc2ccc3nc4n(c3c2)[C@@H]2C[C@H]4N(C)C(=O)c3cccc(OC(F)F)c32)CN1C1COC1 (single isomer, unassigned) [Example 257, (7R,14R)-1-(difluoromethoxy)-6-(methyl-d3)-11-(((2S or 2R)-2-methyl-1-(oxetan-3-yl)azetidin-3-yl)ethynyl)-6,7-dihydro-7,14-methanobenzo[f]benzo[4,5]imidazo[1,2-a][1,4]diazocin-5(14H)-one]
< 100 nM	[2H]C([2H])([2H])N1C(=O)c2cccc(OC(F)F)c2[C@H]2C[C@@H]1c1nc3ccc(C#CC4CN(C5COC5)C4C)cc3n12 (single isomer, unassigned) [Example 258, (7R,14R)-1-(difluoromethoxy)-6-(methyl-d3)-11-(((2R or 2S)-2-methyl-1-(oxetan-3-yl)azetidin-3-yl)ethynyl)-6,7-dihydro-7,14-methanobenzo[f]benzo[4,5]imidazo[1,2-a][1,4]diazocin-5(14H)-one]
< 100 nM	CN1C(=O)c2cccc(OC(F)F)c2[C@H]2C[C@@H]1c1nc3ccc(C#Cc4cnn(C)c4)cc3n12 [Example 1, (1R,11R)-18-(difluoromethoxy)-12-methyl-5-[2-(1-methylpyrazol-4-yl)ethynyl]-2,9,12-triazapentacyclo[9.8.1.0^∧{2,10}.0^∧{3,8}. 0^∧{14,19}]icosa-3(8),4,6,9,14(19),15,17-heptaen-13-one]
< 100 nM	Cn1cc(C#Cc2ccc3nc4n(c3c2)[C@@H]2C[C@H]4NC(=O)c3cccc(OC(F)F)c32)cn1 [Example 2, (1R,11R)-18-(difluoromethoxy)-5-[2-(1-methylpyrazol-4-yl)ethynyl]-2,9,12-triazapentacyclo[9.8.1.0^∧{2,10}.0^∧{3,8}. 0^∧{14,19}]icosa-3(8),4,6,9,14(19),15,17-heptaen-13-one]
< 100 nM	O=C1N[C@@H]2C[C@H](c3c(OC(F)F)cccc31)n1c2nc2ccc(C#Cc3cncnc3)cc21 [Example 3, (1R,11R)-18-(difluoromethoxy)-5-[2-(pyrimidin-5-yl)ethynyl]-2,9,12-triazapentacyclo[9.8.1.0^∧{2,10}.0^∧{3,8}. 0^∧{14,19}]icosa-3(8),4,6,9,14(19),15,17-heptaen-13-one]
< 100 nM	CN1C(=O)c2cccc(OC(F)F)c2[C@H]2C[C@@H]1c1nc3ccc(C#Cc4cncnc4)cc3n12 [Example 4, (1R,11R)-18-(difluoromethoxy)-12-methyl-5-[2-(pyrimidin-5-yl)ethynyl]-2,9,12-triazapentacyclo[9.8.1.0^{2,10}.0^{3,8}.0^{14,19}]icosa-3(8),4,6,9,14(19),15,17-heptaen-13-one]
< 100 nM	CN1C(=O)c2cccc(OC(F)F)c2[C@H]2C[C@@H]1c1nc3ccc(C#Cc4cnn(CCO)c4)cc3n12 [Example 5, (1R,11R)-18-(difluoromethoxy)-5-{2-[1-(2-hydroxyethyl)pyrazol-4-yl]ethynyl}-12-methyl-2,9,12-triazapentacyclo[9.8.1.0^{2,10}.0^{3,8}.0^{14,19}]icosa-3(8),4,6,9,14(19),15,17-heptaen-13-one]
< 100 nM	O=C1N[C@@H]2C[C@H](c3c(OC(F)F)cccc31)n1c2nc2ccc(C#Cc3cnn(CCO)c3)cc21 [Example 6, (1R,11R)-18-(difluoromethoxy)-5-{2-[1-(2-hydroxyethyl)pyrazol-4-yl]ethynyl}-2,9,12-triazapentacyclo[9.8.1.0^{2,10}.0^{3,8}.0^{14,19}]icosa-3(8),4,6,9,14(19),15,17-heptaen-13-one]
< 100 nM	CCN1C(=O)c2cccc(OC(F)F)c2[C@H]2C[C@@H]1c1nc3ccc(C#Cc4cnn(C)c4)cc3n12 [Example 7, (1R,11R)-18-(difluoromethoxy)-12-ethyl-5-[2-(1-methylpyrazol-4-yl)ethynyl]-2,9,12-triazapentacyclo[9.8.1.0^{2,10}.0^{3,8}.0^{14,19}]icosa-3(8),4,6,9,14(19),15,17-heptaen-13-one]
< 100 nM	[2H]C([2H])([2H])N1C(=O)c2cccc(OC(F)F)c2[C@H]2C[C@@H]1c1nc3ccc(C#Cc4cnn(C)c4)cc3n12 [Example 8, (7R,14R)-1-(difluoromethoxy)-6-(methyl-d3)-11-((1-methyl-1H-pyrazol-4-yl)ethynyl)-6,7-dihydro-7,14-methanobenzo[f]benzo[4,5]imidazo[1,2-a][1,4]diazocin-5(14H)-one]
< 100 nM	CN1C(=O)c2cccc(OC(F)F)c2[C@H]2C[C@@H]1c1nc3ccc(C#Cc4cncn4C)cc3n12 [Example 9, (1R,11R)-18-(difluoromethoxy)-12-methyl-5-[2-(3-methylimidazol-4-yl)ethynyl]-2,9,12-triazapentacyclo[9.8.1.0^{2,10}.0^{3,8}.0^{14,19}]icosa-3(8),4,6,9,14(19),15,17-heptaen-13-one]
< 100 nM	[2H]C([2H])([2H])N1C(=O)c2cccc(OC(F)F)c2[C@H]2C[C@@H]1c1nc3ccc(C#Cc4cnn(CCO)c4)cc3n12 [Example 10, (7R,14R)-1-(difluoromethoxy)-11-((1-(2-hydroxyethyl)-1H-pyrazol-4-yl)ethynyl)-6-(methyl-d3)-6,7-dihydro-7,14-methanobenzo[f]benzo[4,5]imidazo[1,2-a][1,4]diazocin-5(14H)-one]
< 100 nM	[2H]C([2H])([2H])N1C(=O)c2cccc(OC(F)F)c2[C@H]2C[C@@H]1c1nc3ccc(C#Cc4cncnc4)cc3n12 [Example 11, (7R,14R)-1-(difluoromethoxy)-6-(methyl-d3)-11-(pyrimidin-5-ylethynyl)-6,7-dihydro-7,14-methanobenzo[f]benzo[4,5]imidazo[1,2-a][1,4]diazocin-5(14H)-one]
1000 to 10000 nM	[2H]C([2H])([2H])N1C(=O)c2cccc(OC(F)F)c2[C@H]2C[C@@H]1c1nc3ccc(C#Cc4cnnn4C)cc3n12 [Example 12, (7R,14R)-1-(difluoromethoxy)-6-(methyl-d3)-11-((1-methyl-1H-1,2,3-triazol-5-yl)ethynyl)-6,7-dihydro-7,14-methanobenzo[f]benzo[4,5]imidazo[1,2-a][1,4]diazocin-5(14H)-one]
< 100 nM	[2H]C([2H])([2H])N1C(=O)c2cccc(OC(F)F)c2[C@H]2C[C@@H]1c1nc3ccc(C#Cc4ccnn4C)cc3n12 [Example 13, (7R,14R)-1-(difluoromethoxy)-6-(methyl-d3)-11-((1-methyl-1H-pyrazol-5-yl)ethynyl)-6,7-dihydro-7,14-methanobenzo[f]benzo[4,5]imidazo[1,2-a][1,4]diazocin-5(14H)-one]
< 100 nM	[2H]C([2H])([2H])N1C(=O)c2cccc(OC(F)F)c2[C@H]2C[C@@H]1c1nc3ccc(C#Cc4cn[nH]c4)cc3n12 [Example 14, (7R,14R)-11-((1H-pyrazol-4-yl)ethynyl)-1-(difluoromethoxy)-6-(methyl-d3)-6,7-dihydro-7,14-methanobenzo[f]benzo[4,5]imidazo[1,2-a][1,4]diazocin-5(14H)-one]
< 100 nM	[2H]C([2H])([2H])N1C(=O)c2cccc(OC(F)F)c2[C@H]2C[C@@H]1c1nc3ccc(C#Cc4cnn(CCN)c4)cc3n12 [Example 15, (7R,14R)-11-((1-(2-aminoethyl)-1H-pyrazol-4-yl)ethynyl)-1-(difluoromethoxy)-6-(methyl-d3)-6,7-dihydro-7,14-methanobenzo[f]benzo[4,5]imidazo[1,2-a][1,4]diazocin-5(14H)-one]
< 100 nM	[2H]C([2H])([2H])N1C(=O)c2cccc(OC(F)F)c2[C@H]2C[C@@H]1c1nc3ccc(C#Cc4cnc(C(C)(C)O)nc4)cc3n12 [Example 16, (7R,14R)-1-(difluoromethoxy)-11-((2-(2-hydroxypropan-2-yl)pyrimidin-5-yl)ethynyl)-6-(methyl-d3)-6,7-dihydro-7,14-methanobenzo[f]benzo[4,5]imidazo[1,2-a][1,4]diazocin-5(14H)-one]
